Data taken from patent US20100058650A1, “HYDROXYMETHYLFURFURAL ETHERS FROM SUGARS OR HMF AND MIXED ALCOHOLS” (FURANIX TECHNOLOGIES B.V., priority 2007, published 2010).

Experiment: Fuel solubility: miscibility of blends with commercial diesel
Type: physicochemical
From the text: Fuel solubility is a primary concern for diesel fuel applications. Not all highly polar oxygenates have good solubility in the current commercial diesel fuels.

Miscibility of blend with commercial diesel (5 vol % blend with commercial diesel): completely miscible | Miscibility of blend with commercial diesel (25 vol % blend with commercial diesel): phase separation occurs | Miscibility of blend with commercial diesel (40 vol % blend with commercial diesel): phase separation occurs
Structure (SMILES): CCOCc1ccc(C=O)o1 [EMF, 5-(ethoxymethyl)furfural]
